Assay results published in patent publication US8293211B2, “CB1 receptor antagonists and uses thereof” (MAKScientific, LLC, priority 2007, dated 2012).

Legend:
[1] = test system: Rats; experiment: Operant lever pressing on FR5 schedules; format: in vivo, rat
Description: Following the initial training period, rats (n=8 each group) were injected with drug and then tested once a week on Thursdays. For experiments 1 and 2, Compound 3 or Compound 2, respectively were injected IP at doses of 1.0, 2.0, 4.0, or 8.0 mg/kg or vehicle. Pretreatment time for these two experiments was 30 min. For experiments 3 and 4, rats were given drug or vehicle orally 1 hour before testing. In experiment 3, rats were given vehicle or 8.0, 16.0, or 32.0 mg/kg Compound 3. In experiment 4, rats received vehicle or Compound 2 at doses of 4.0, 8.0, or 16.0 mg/kg. All doses were given in a randomized order using a repeated measures design.

[2] = biological target: T1, hCB1 (Homo sapiens, UniProt P21554); experiment: Forskolin-stimulated cAMP assay; format: cell-based
T1 construct: expressed in transfected cells; host or cells: HEK293
T1 sequence (P21554 whole entry): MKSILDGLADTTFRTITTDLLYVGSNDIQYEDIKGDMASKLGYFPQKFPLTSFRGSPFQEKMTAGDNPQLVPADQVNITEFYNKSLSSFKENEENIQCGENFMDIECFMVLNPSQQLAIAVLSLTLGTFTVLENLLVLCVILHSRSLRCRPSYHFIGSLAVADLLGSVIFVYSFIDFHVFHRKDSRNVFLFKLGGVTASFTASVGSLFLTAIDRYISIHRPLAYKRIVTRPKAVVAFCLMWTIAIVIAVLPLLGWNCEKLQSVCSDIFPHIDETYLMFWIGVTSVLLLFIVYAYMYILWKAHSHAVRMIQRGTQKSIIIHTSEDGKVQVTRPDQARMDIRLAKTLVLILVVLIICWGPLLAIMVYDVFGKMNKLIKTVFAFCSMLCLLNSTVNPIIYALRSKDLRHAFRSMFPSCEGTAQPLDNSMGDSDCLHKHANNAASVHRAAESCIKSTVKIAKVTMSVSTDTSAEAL
Description: Intracellular cAMP levels were measured with a competitive protein-binding assay using intact HEK293 cells expressing hCB1 or hCB2 and a cAMP immunoassay kit from Sigma (St. Louis, Mo.). In short, forskolin stimulated cells were incubated with various concentrations of compound, cAMP anti-body and cAMP conjugate for 2 hours at ambient temperature. The reaction was stopped by emptying the wells followed by the addition of p-NPP substrate and incubation for 1 hour. […] The results were expressed as percent inhibition of forskolin-stimulated cAMP accumulation and EC50 curves were generated with the use of GraphPad Prism software.

[3] = biological target: T2, hCB2 receptor (Homo sapiens, UniProt P34972); experiment: [3H]CP55,940 competitive binding assay, CB2 (HEK293 cells expressing hCB2); conditions: against [3H]CP55,940; HEK293 hCB2 membranes
T2 construct: expressed in transfected cells; host or cells: HEK293
T2 sequence (P34972 whole entry): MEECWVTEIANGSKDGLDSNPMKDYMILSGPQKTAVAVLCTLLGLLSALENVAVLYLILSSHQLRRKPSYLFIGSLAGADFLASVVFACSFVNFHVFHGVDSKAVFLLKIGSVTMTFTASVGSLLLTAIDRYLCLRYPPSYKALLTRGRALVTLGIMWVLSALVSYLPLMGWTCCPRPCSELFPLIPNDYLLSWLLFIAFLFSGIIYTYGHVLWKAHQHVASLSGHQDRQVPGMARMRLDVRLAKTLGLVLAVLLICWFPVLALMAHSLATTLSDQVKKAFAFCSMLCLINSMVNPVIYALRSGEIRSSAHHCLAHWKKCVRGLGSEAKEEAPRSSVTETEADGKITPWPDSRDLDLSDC
Description: Compounds were tested for their CB1 and CB2 receptor using membrane preparations from rat brain or HEK293 cells expressing hCB2 receptor, respectively, and [^3H]CP55,940 as previously described 1, 36-38. Stock solutions of the compounds (10 mM in DMSO) were diluted in TME buffer (50 mM Tris-HCL, 3 mM MgCl2, 100 mM NaCl, 0.2 mM EDTA, pH 7.4) with 0.1% BSA and transferred to 96 well plates containing [^3H]CP55,940 (specific activity 128 Ci/mmol; NIDA) at a final concentration of 0.76 nM. Non-specific binding was assessed in the presence of 100 nM CP55,940. The binding reaction was initiated with the addition of the respective membrane suspension (˜50 μg membrane protein) followed by incubation at 30° C. with gentle agitation in a shaking water bath for 60 minutes. […] The filter plates were washed with ice-cold wash buffer (50 mM Tris-base, 5 mM MgCl2 with 0.5% BSA) and bound radioactivity was determined using a Packard TopCount Scintillation Counter. The results were analyzed using nonlinear regression to determine the actual IC50 and the Ki values of the ligand (Prizm by GraphPad Software, Inc.). All data were in duplicate with IC50 and Ki values determined from at least two independent experiments.
The affinity of a compound for CB1 vs. CB2 is determined by the ratio of the inhibitory constants (Ki), as determined by the competitive binding assay.

[4] = test system: Rats; experiment: Taste reactivity studies (conditioned gaping, saccharin preference); format: in vivo, rat; conditions: for Mean (±SEM) saccharin preference ratio: 2-bottle preference test
Description: Rats were implanted with intraoral cannulae and 24 hrs prior to the surgical procedure, they were administered a prophylactic antibiotic (Derapin, 100 mg/kg, sc; Ayerst). On the day of surgery, the rats were anaesthetized with isofluorane gas and were administered Anafen (7.0 mg/kg, sc; Merial), a nonsteroidal anti-inflammatory drug (NSAID) with analgesic properties. A 3.0 cm^2 patch of fur was shaved at the back of the neck just above the scapula and the area was surgically prepared [Betadine surgical scrub (Purdue Frederick) and alcohol]. A thin-walled 15-gauge stainless steel needle was inserted at the back of the neck, directed s.c., around the ear and brought out behind the first molar inside the mouth. A length of IntraMedic polyetheylene tubing with an inner diameter of 0.86 mm and an outer diameter of 1.27 mm was then run through the needle after which the needle was removed. Two circular elastic discs were placed over the tubing and drawn to the exposed skin at the back of the neck for the purpose of stabilizing the cannula. The tubing was held secure in the oral cavity by an o-ring, which was sealed behind the tubing prior to cannulation surgery. For the purposes of conditioning and testing, the cannula was connected to the infusion pump (Harvard Apparatus, South Natick, Mass.) for delivery of the solution by slipping the tubing of the cannula inside a second polyethylene tube (inner diameter 1.19 mm, outer diameter 1.70 mm) attached to the infusion pump. Two rats were subsequently removed from the study due to an ineffective cannula.
Five days after surgery and prior to conditioning (day 1), rats were individually placed in the Plexiglas taste reactivity chamber (22.5×26×20 cm) with their cannula attached to the infusion pump for fluid delivery. The rats were habituated to the taste reactivity procedure by infusing them with water for a period of 5 min at a rate of 1.0 ml/min after which they were returned to their home cage. On day 2, the rats were individually taken to the chamber for a single conditioning trial. They were intraorally infused with 0.1% saccharin solution for 5 min at a rate of 1.0 ml/min while their orofacial and somatic responses were videotaped from a mirror at a 45° angle below the chamber. Immediately after the saccharin infusion the rats were injected with the appropriate dose of Compound 3, according to random assignment: 0.0 mg/kg (vehicle; n=8), 2.0 mg/kg (n=7), 4.0 mg/kg (n=7), 8.0 mg/kg (n=8). On day 5, the animals were given a second adaptation trial with a 5-min intraoral infusion of water.
Taste reactivity testing occurred on day 6, 96 hr after conditioning. The rats were taken to the chamber and following a period of 1 min were infused with 0.1% saccharin solution over a period of 5 min (1.0 ml/min) while being videotaped. Immediately after the session, the rats were returned to their home cage. On day 7, following 15 hr of water deprivation, the rats were given a 2-bottle preference test. The rats were presented with a graduated tube containing 0.1% saccharin solution and a graduated tube containing water for a period of 120 min. The amount consumed from each bottle during the 120 min of drinking was converted to a preference score: Amount consumed of saccharin solution/amount consumed of saccharin+amount consumed of water. The taste reactivity videotapes were scored using the Observer (Noldus Information Technology, Sterling, Va.) event-recording program. The behaviors scored included the frequency of gaping, chin rubs, ingestive reactions, passive drips and activity. Gaping was defined as rapid, large-amplitude opening of the mandible with retraction of the corners of the mouth. Chin rubbings were defined as chin or mouth in direct contact with the floor or wall of the chamber and forward projections of the body. […]

Cc1c(C(=O)NN2CCCCC2)nn(-c2ccc(Cl)cc2Cl)c1-c1ccc(C#CCCC#N)cc1 [Compound 3]
suppression of FR5 responding compared to vehicle ([1]; IP 1.0, 2.0, 4.0, 8.0 mg/kg): significantly suppressed | ED50 ([1]; Rattus norvegicus, IP, pretreatment 30 min, read-out: ED50 for the effect on FR5 responding): 0.78 mg/kg | change in lever pressing on FR5 compared to vehicle ([1]; oral, 1 hour before testing (Compound 3 8.0-32.0 mg/kg; Compound 2 4.0-16.0 mg/kg)): no significant change | change of forskolin-stimulated cAMP accumulation ([2]; CB1 transfected HEK cells, up to concentrations of 630 nM): did not change | effect on forskolin stimulated cAMP production ([2]; HEK293 cells transfected with human CB1 receptors): no effect | Ki [3]: 92 nM | ingestion (hedonic) taste reactions, Mean±SEM ([4]; 2.0 mg/kg): 10.5 (3.2) | Mean (±SEM) saccharin preference ratio ([4]; 2.0 mg/kg): 0.411 (0.059) | ingestion (hedonic) taste reactions, Mean±SEM ([4]; 4.0 mg/kg): 4.5 (1.5) | Mean (±SEM) saccharin preference ratio ([4]; 4.0 mg/kg): 0.298 (0.074) | ingestion (hedonic) taste reactions, Mean±SEM ([4]; 8.0 mg/kg): 1.3 (0.5) | Mean (±SEM) saccharin preference ratio ([4]; 8.0 mg/kg): 0.088 (+0.017) | effect on chin rubbing or conditioned gaping ([4]; 2.0, 4.0, 8.0 mg/kg): no significant effects
